# Measured values: ChEMBL document CHEMBL1155586, “Streptazones A, B(1), B(2), C, and D: new piperidine alkaloids from streptomycetes” (2000)
# Active and inactive are the calls of the source. The rule behind the calls is not given here.
# How the values were obtained:
# [1] = Cytotoxicity against human HMO2 cells; assay type: functional
# [2] = test system: MCF7; experiment: Cytotoxicity against human MCF7 cells; assay type: functional
# [3] = test system: HepG2; experiment: Cytotoxicity against human HepG2 cells; assay type: functional
# [4] = Cytotoxicity against human Kato3 cells; assay type: functional
# [5] = test system: MCF7; experiment: Cytotoxicity against human MCF7 cells at 50 umol/L; assay type: functional, cell-based
# [6] = test system: Kato3; experiment: Cytotoxicity against human Kato3 cells at 50 umol/L; assay type: functional, cell-based
# [7] = test system: HMO2; experiment: Cytotoxicity against human HMO2 cells at 50 umol/L; assay type: functional, cell-based
SMILES,GI50 [1],TGI [1],GI50 [2],TGI [2],GI50 [3],TGI [3],GI50 [4],TGI [4],Activity [5],Activity [6],Activity [7]
C/C=C1\C(=O)C=C2NCCC3OC213 (stereo not given) [STREPTAZONE A],500 nM,50 µM,15 µM,50 µM,< 100 nM,2500 nM,600 nM,1000 nM,,,
C/C=C1/C2=CCCN3C(=O)O[C@H]([C@H]1O)[C@H]23,,,,,,,,,inactive,inactive,inactive
C/C=C/C=C/C1=CC(=O)CCN1,,,,,,,,,inactive,inactive,inactive
C/C=C1\C=CC2=C1C(=O)CCN2,,,,,,,,,inactive,inactive,inactive
C/C=C1\C(=O)C=C2NCCC=C21,,,,,,,,,inactive,inactive,inactive
